The text below walks through data of publication PMC5150661 (Journal of Medicinal Chemistry, 2016).

Marks after values point to notes of the source that are not given here. Some results are limits rather than exact numbers.

For data set [1] the following is noted: cited from earlier work.
For data set [2] the following is noted: 1% DMSO, nephelometry; for Sol2.0: 0.01 M HCl (approximately pH 2.0); for Sol6.5: pH 6.5 phosphate buffer.
The format of data set [3] is in vitro ADME. As to conditions: liver microsomes.
The conditions of data set [4]: single 1250 mg/kg dose, mice; cited from earlier work.
Data set [5] has as its system androgen-dependent cell line. The following applies: cited from earlier work.
Data set [6] relates to schistosomula or adult S. mansoni. The following applies: concentrations up to 170 μM; cited from earlier work.
Data set [7] concerns S. mansoni. The following applies: 1 × 100 mg/kg po; ref Keiser et al. 19; 100 mg/kg; cited from earlier work.
The subject of a further data set is AR. As to conditions: cited from earlier work.
The next data set in a line: physchem. The data set is classed as physicochemical. The following applies: pH 7.4.
Data set [8] in a line: in vitro. The following applies: human, microsomes.
The subject of data set [9] is S. mansoni. The experiment in a line: S. mansoni in vivo study, worm burden reduction in infected NMRI mice. Set-up: species or system Schistosoma mansoni in NMRI mice. As to conditions: Schistosoma mansoni, in Mus musculus, po, 504 h, read-out: S. mansoni WBR.
Data set [10] is described as follows: in vitro. The following applies: mouse, microsomes.
The next data set addresses human albumin (Homo sapiens, UniProt P02768). The experiment in a line: in vitro. The data set is classed as in vitro ADME. As to conditions: plasma, cPPB, estimated from retention on human albumin column.
Data set [11] is described as follows: Mouse exposure study after oral administration. As to conditions: male, Swiss outbred, mouse, plasma, po, 100 mg/kg. In kind it is in vivo, male Swiss outbred mice.
The target in data set [12] is T1, wild-type androgen receptor (AR) in LAPC4 cell line (Homo sapiens, UniProt P10275).
T1 sequence (P10275 1-920): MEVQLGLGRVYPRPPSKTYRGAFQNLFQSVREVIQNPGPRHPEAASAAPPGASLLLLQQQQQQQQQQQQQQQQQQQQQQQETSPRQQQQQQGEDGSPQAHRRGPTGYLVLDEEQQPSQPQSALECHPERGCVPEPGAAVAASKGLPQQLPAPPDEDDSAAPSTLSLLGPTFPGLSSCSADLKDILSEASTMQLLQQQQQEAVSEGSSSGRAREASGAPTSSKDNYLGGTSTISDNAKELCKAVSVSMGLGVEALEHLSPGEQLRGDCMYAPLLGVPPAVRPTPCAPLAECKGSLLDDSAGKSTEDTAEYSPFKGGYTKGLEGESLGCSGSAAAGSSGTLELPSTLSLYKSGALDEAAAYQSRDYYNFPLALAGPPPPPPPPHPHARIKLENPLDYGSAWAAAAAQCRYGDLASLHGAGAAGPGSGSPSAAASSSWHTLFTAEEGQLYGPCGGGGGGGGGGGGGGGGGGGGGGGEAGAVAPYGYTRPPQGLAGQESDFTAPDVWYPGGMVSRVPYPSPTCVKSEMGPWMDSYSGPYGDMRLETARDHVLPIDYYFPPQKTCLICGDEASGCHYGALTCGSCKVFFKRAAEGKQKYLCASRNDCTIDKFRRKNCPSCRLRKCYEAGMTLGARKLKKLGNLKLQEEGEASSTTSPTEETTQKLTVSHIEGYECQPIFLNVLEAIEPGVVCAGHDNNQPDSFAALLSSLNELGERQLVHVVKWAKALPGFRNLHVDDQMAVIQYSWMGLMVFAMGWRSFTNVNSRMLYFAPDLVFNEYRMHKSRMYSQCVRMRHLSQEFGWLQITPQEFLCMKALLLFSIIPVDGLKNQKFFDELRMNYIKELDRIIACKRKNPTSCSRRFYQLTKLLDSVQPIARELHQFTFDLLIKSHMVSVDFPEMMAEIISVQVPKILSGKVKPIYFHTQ
The data set is classed as cell-based.

Sequence of human albumin (P02768 25-609): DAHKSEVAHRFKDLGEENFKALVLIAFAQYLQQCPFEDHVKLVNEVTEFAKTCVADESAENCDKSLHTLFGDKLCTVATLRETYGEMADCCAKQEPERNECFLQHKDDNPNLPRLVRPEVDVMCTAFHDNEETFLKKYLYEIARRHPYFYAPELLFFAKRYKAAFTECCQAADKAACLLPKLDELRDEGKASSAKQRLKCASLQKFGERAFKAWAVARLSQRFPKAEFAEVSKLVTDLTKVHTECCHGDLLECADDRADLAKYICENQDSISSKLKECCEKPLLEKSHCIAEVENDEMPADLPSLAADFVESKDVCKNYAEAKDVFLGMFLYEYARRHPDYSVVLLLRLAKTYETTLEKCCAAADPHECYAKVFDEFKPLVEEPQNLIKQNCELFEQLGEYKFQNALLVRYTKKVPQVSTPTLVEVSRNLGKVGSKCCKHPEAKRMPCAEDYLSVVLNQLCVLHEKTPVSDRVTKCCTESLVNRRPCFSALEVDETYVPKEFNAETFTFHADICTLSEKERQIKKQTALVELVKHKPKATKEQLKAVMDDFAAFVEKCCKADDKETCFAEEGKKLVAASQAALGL

A word on the pKa: it is the pH at which an ionisable group is half protonated. Consider `CC1(C)NC(=O)N(c2ccc(F)c(C(F)(F)F)c2)C1=O` [Compd 1], for which, in data set [1], the pKa is reported as 12.1. For the same molecule, in data set [2], the Sol2.0 is >100/>100 μg/mL and the Sol6.5 is listed as >100/>100 μg/mL. The “metabolic stability (in words)” value in [3] is recorded as “high metabolic stabilities”. Besides, in [4], the “toxicity after a single dose” value is reported as “no apparent toxicity”. In addition, in [5], the DHT-induced cell proliferation result was “did block”. Also, the “effect on adult S. mansoni in vitro” value in data set [6] was “almost no effect”. In addition, the “S. mansoni WBR” value with S. mansoni [7] was 95 ^h %. For the same molecule, in the data set on AR, the “interaction with the AR in a ligand competition assay” value was “no measurable interaction”.

By chromatographic logD is commonly meant lipophilicity estimated from chromatographic retention. A low value points to a more hydrophilic compound. As a reminder, the microsomal CLint is the rate of metabolic loss divided by the concentration. A lower microsomal CLint goes with greater metabolic stability. For orientation: fraction unbound means the share of the substance not bound to proteins or other matrix. The term AUC(0-t) denotes exposure summed from dosing to a finite time, without extrapolation to infinity. Read a low AUC(0-t) as low exposure. In general, Cmax refers to the highest concentration seen after dosing. One may read the Tmax as the time from dosing to the highest level. With `CC1NC(=O)N(c2ccc(F)c(C(F)(F)F)c2)C1=O` (stereo not shown) [Compd 23, 3-[4-Fluoro-3-(trifluoromethyl)phenyl]-5-methylimidazolidine-2,4-dione], the chromatographic logD in the data set “physchem” amounted to 2.4. In data set [2], the Sol2.0 was >100/>100 μg/mL and the Sol6.5 was >100/>100 μg/mL. Moreover, the “metabolic stability (in words)” value in [3] is “high metabolic stabilities”. The microsomal CLint in “in vitro [8]” amounted to 17 µL/min/mg. Moreover, the inhibition in vivo at 100 mg/kg in the data set on S. mansoni [9] was 66%. This molecule also came in with a microsomal CLint in the data set “in vitro [10]” of 34 µL/min/mg. The free fraction (fraction unbound) at human albumin is 0.614. Also, in data set [11], the AUC(0-t) was determined as 163 µM·h, the highest concentration (Cmax) came out at 26.6 µM and the Tmax is 1 h.

One may read the IC50 as the concentration needed to halve the response being measured. Molecule `O=C1N[C@H](c2ccccc2)C(=O)N1c1ccc(F)c(C(F)(F)F)c1` [Compd 24, (R)-3-[4-Fluoro-3-(trifluoromethyl)phenyl]-5-phenylimidazolidine-2,4-dione] gave a chromatographic logD in “physchem” of 3.5. In addition, in [12], the IC50 was 5.3 µM. Further, the Sol2.0 in data set [2] is reported as 6.3–12.5/6.3–12.5 μg/mL. Further, the Sol6.5 in [2] was 6.3–12.5/6.3–12.5 μg/mL. Besides, the “metabolic stability (in words)” value in [3] was “decreased the metabolic stabilities”. Further, the results for the microsomal CLint in the data set “in vitro [8]” and in “in vitro [10]” were 22 µL/min/mg and 181 µL/min/mg, respectively. Moreover, the inhibition in vivo at 100 mg/kg in the data set on S. mansoni [9] was 41%.
